Assays:
[1] = Acute toxicity in rats, stomach probe; type: in vivo; settings: for Toxic symptoms or death (in words): doses up to 6 g/kg; for LD50: rat, in vivo, po
Method: (§1) This was tested on mice and rats after administration by stomach probe. […] The LD 50 must therefore be above 6 g/kg.

[2] = tested on: vessels of the ciliary body (haemato-ophthalmic barrier); assay: Permeability of the haemato-ophthalmic barrier induced by paracentesis in the rabbit (Evans Blue dye method); type: in vivo, New Zealand albino rabbit; settings: for Amount of dye coming out of the vessels of the ciliary body (in words): single dose of 100 or 200 mg/kg, two or four hours after administration
Method: (§2) The effect on the permeability of the haemato-ophthalmic barrier was measured by inducing an increase in the permeability of the vessels of the ciliary body, either by paracentesis or by instillation of sodium hydroxide into the conjunctival sac. The reduction in permeability induced by oral administration of the products under examination was then measured.
The experiment was carried out on 80 New Zealand albino rabbits, average body weight 2.8 kg, divided into eight groups each of ten animals.
The vasal permeability was measured by the dye method: 1 ml of Evans Blue in a concentration of 0.5% was injected into the marginal vein of the auricle.
After 10 minutes the left eye was subjected to paracentesis and after 12 minutes a sample of aqueous humour was taken. The quantity of Evans Blue in the sampled aqueous humour was used to assess the permeability of the haemato-ophthalmic barrier. Immediately afterwards, compounds I and II were administered in doses of 100 or 200 mg/kg by stomach probe.
Two or four hours after administration, paracentesis was carried out on the right eye and after 12 minutes a sample of aqueous humour was taken.
The quantity of Evans Blue in the aqueous humour was evaluated by spectrophotometer reading at 623 nm. […]

[3] = Acute toxicity in mice, stomach probe; type: in vivo; settings: for Toxic symptoms or death (in words): doses up to 6 g/kg; for LD50: mouse, in vivo, po
Method: as §1

[4] = tested on: vessels of the ciliary body (haemato-ophthalmic barrier); assay: Permeability of the haemato-ophthalmic barrier induced by NaOH in the rabbit (Evans Blue); type: in vivo, New Zealand rabbit; settings: seven days; for Percentage variation of Evans Blue: vs controls; for Reduction in permeability, significance (in words): 100 mg/kg os; for Permeability of the vessels of the ciliary body caused by the irritating agent (in words): 50 or 100 mg/kg os
Method: as §2
The experiment was carried out on 50 New Zealand rabbits, average body weight 2.2 kg. The substance was administered once a day for seven days in doses of 50 or 100 mg/kg. A control group was treated with tap water.
Thirty minutes after the last administration, 1 ml of a 0.5% solution of Evans Blue was administered in the marginal vein of the ear. After 30 minutes, inflammation of the eye tissue was produced by instilling two drops of 0.25N sodium hydroxide in the conjunctival sac. Two hours later the animal was anesthesized and a sample of aqueous humour was taken in order to measure the proportion of dye.

[5] = tested on: vessels of the ciliary body (haemato-ophthalmic barrier); assay: Permeability of the haemato-ophthalmic barrier induced by histamine (corneal lens method, Evans Blue); type: in vivo, New Zealand rabbit; settings: for Permeability of the vessels of the ciliary body caused by histamine (in words) / Effects, significance (in words): 100 mg/kg by gavage; for Effects, significance (in words): after 2 and 4 hours; for Evans Blue in aqueous humour, m ± sd / Percentage variation of Evans Blue relative to time 0: 100 mg/kg os
Method: The experiment was carried out on […] New Zealand rabbits, average body weight 2.5 kg, divided into three groups of ten animals each.
The vasal permeability was measured by the dye method: 1 ml of Evans Blue in a concentration of 0.5% was injected into the marginal vein of the ear. After 10 min a soft corneal lens embedded in a 2% solution of histamine hydrochloride was applied for 30 min to the left eye.
The left eye was subjected to paracentesis and a sample of aqueous humour was taken.
Immediately after, the substances were given by gavage at the dose of 100 mg/kg. Two or four hours after administration a lens embedded with histamine as described before was applied for 30 min on the right eye. Paracentesis was carried out and aqueous humor was taken.
The quantity of Evans Blue in the aqueous humor was evaluated as described in 1(i).

[6] = tested on: conjunctiva, cornea, iris, crystalline lens, vitreous humour and retina; assay: Ocular tolerability after oral administration; type: in vivo, New Zealand rabbit; settings: single (200 mg/kg) or repeated (100 mg/kg, 7 days) oral administration
Method: The ocular tolerability of compounds I and II was measured in New Zealand rabbits on the anterior segment (conjunctiva, cornea, iris and crystalline lens) and on the posterior segment (vitreous humour and retina) after oral administration, local application and intra-ocular injection.
Both products were administered by stomach probe, either in a single dose of 200 mg/kg or in repeated doses of 100 mg/kg for 7 days. Surveys were made before and 1, 2 and 4 hours after acute administration, on the third and seventh days after repeated administration and 5 days after suspension of treatment.

[7] = 100 mg/kg os, 1 administration, 2 hours
[8] = 100 mg/kg os, 1 administration, 4 hours
[9] = 100 mg/kg os, 7 administrations, 24 hours after last
[10] = 200 mg/kg os, 1 administration, 2 hours
[11] = 200 mg/kg os, 1 administration, 4 hours

Compound: Oc1ccc(-c2[o+]c3cc(O)cc(O)c3cc2O)cc1 [Compound I, pelargonidin]
- Toxic symptoms or death (in words) [1]: did not cause toxic symptoms or death
- LD50 [1]: > 6000 mg/kg
- Evans Blue in aqueous humour, m ± s.d. [2, 7]: 34.9 ± 8.5 µg/mL
- Percentage variation of Evans Blue relative to time 0 [2, 7]: -15.4%
- Evans Blue in aqueous humour, m ± s.d. [2, 8]: 46.9 ± 17.5 µg/mL
- Percentage variation of Evans Blue relative to time 0 [2, 8]: -15.5%
- Evans Blue in aqueous humour, m ± s.d. [2, 9]: 44.2 ± 11.7 µg/mL
- Percentage variation of Evans Blue relative to time 0 [2, 9]: -22.4%
- Evans Blue in aqueous humour, m ± s.d. [2, 10]: 42.2 ± 15.0 µg/mL
- Percentage variation of Evans Blue relative to time 0 [2, 10]: -16.4%
- Evans Blue in aqueous humour, m ± s.d. [2, 11]: 44.8 ± 20.2 µg/mL
- Percentage variation of Evans Blue relative to time 0 [2, 11]: -15.6%
- Amount of dye coming out of the vessels of the ciliary body (in words) [2]: reduced in a statistically significant manner
- Toxic symptoms or death (in words) [3]: did not cause toxic symptoms or death
- LD50 [3]: > 6000 mg/kg
- Evans Blue, m ± s.e. ([4]; 50 mg/kg/day os): 5.8 ± 0.8 µg/mL
- Percentage variation of Evans Blue ([4]; 50 mg/kg/day os): -2%
- Reduction in permeability, significance (in words) [4]: statistically significant compared with the controls
- Evans Blue, m ± s.e. ([4]; 100 mg/kg/day os): 3.5 ± 0.6 µg/mL
- Percentage variation of Evans Blue ([4]; 100 mg/kg/day os): -40%
- Permeability of the vessels of the ciliary body caused by the irritating agent (in words) [4]: dose-dependent reduction in the permeability of the vessels of the ciliary body
- Permeability of the vessels of the ciliary body caused by histamine (in words) [5]: reduced permeability of the vessels of the ciliary body caused by histamine
- Effects, significance (in words) [5]: statistically significant compared with the basal values
- Evans Blue in aqueous humour, m ± sd ([5]; 2 hours): 86.2 ± 6.1 µg/mL
- Percentage variation of Evans Blue relative to time 0 ([5]; 2 hours): -19.0%
- Evans Blue in aqueous humour, m ± sd ([5]; 4 hours): 75.9 ± 10.3 µg/mL
- Percentage variation of Evans Blue relative to time 0 ([5]; 4 hours): -29.9%
- Modifications in ocular structures (in words) [6]: did not induce modifications in the conjunctive, cornea, iris, crystalline lens, vitrous humour or retina

Compound: Oc1cc(O)c2cc(O)c(-c3cc(O)c(O)c(O)c3)[o+]c2c1 [Compound II, delphinidin]
- Toxic symptoms or death (in words) [1]: did not cause toxic symptoms or death
- LD50 [1]: > 6000 mg/kg
- Evans Blue in aqueous humour, m ± s.d. [2, 7]: 41.5 ± 7.9 µg/mL
- Percentage variation of Evans Blue relative to time 0 [2, 7]: -14.1%
- Evans Blue in aqueous humour, m ± s.d. [2, 8]: 45.6 ± 9.7 µg/mL
- Percentage variation of Evans Blue relative to time 0 [2, 8]: -14.9%
- Evans Blue in aqueous humour, m ± s.d. [2, 9]: 42.5 ± 13.3 µg/mL
- Percentage variation of Evans Blue relative to time 0 [2, 9]: -20.8%
- Evans Blue in aqueous humour, m ± s.d. [2, 10]: 45.1 ± 10.3 µg/mL
- Percentage variation of Evans Blue relative to time 0 [2, 10]: -15.1%
- Evans Blue in aqueous humour, m ± s.d. [2, 11]: 45.9 ± 12.2 µg/mL
- Percentage variation of Evans Blue relative to time 0 [2, 11]: -15.1%
- Amount of dye coming out of the vessels of the ciliary body (in words) [2]: reduced in a statistically significant manner
- Toxic symptoms or death (in words) [3]: did not cause toxic symptoms or death
- LD50 [3]: > 6000 mg/kg
- Evans Blue, m ± s.e. ([4]; 50 mg/kg/day os): 5.1 ± 0.7 µg/mL
- Percentage variation of Evans Blue ([4]; 50 mg/kg/day os): -14%
- Reduction in permeability, significance (in words) [4]: statistically significant compared with the controls
- Evans Blue, m ± s.e. ([4]; 100 mg/kg/day os): 3.2 ± 0.4 µg/mL
- Percentage variation of Evans Blue ([4]; 100 mg/kg/day os): -45%
- Permeability of the vessels of the ciliary body caused by the irritating agent (in words) [4]: dose-dependent reduction in the permeability of the vessels of the ciliary body
- Permeability of the vessels of the ciliary body caused by histamine (in words) [5]: reduced permeability of the vessels of the ciliary body caused by histamine
- Effects, significance (in words) [5]: statistically significant compared with the basal values
- Evans Blue in aqueous humour, m ± sd ([5]; 2 hours): 82.0 ± 7.0 µg/mL
- Percentage variation of Evans Blue relative to time 0 ([5]; 2 hours): -25.3%
- Evans Blue in aqueous humour, m ± sd ([5]; 4 hours): 68.8 ± 8.7 µg/mL
- Percentage variation of Evans Blue relative to time 0 ([5]; 4 hours): -31.7%
- Modifications in ocular structures (in words) [6]: did not induce modifications in the conjunctive, cornea, iris, crystalline lens, vitrous humour or retina
